Where two headings read alike, the source gives them in different places.
How the values were obtained:
HCC38 = assay: MTT cytotoxicity assay; format: cell-based; conditions: Homo sapiens, 24 h incubation, mean ± SEM, read-out: Cytotoxic effect, IC50
Description: (§1) Cell viability was determined using the metabolic microplate spectrophotometric assay with Methylthiazolyl diphenyltetrazolium bromide (MTT), i.e., 3-(4,5-Dimethyl-2-thiazolyl)-2,5-diphenyl-2H-tetrazolium bromide (Sigma-Aldrich; St. Louis, MO, USA). The anticancer activity of the investigated compounds was evaluated in vitro on the basis of their ability to inhibit the proliferation of various cancer cells. The appropriate number of cells for a given cell line (6–8 × 10^3 cells/mL) were seeded into sterile, colorless 96-well microplates. After 24 h of culture, specific wells of the microplate were treated with test compounds (10–200 µmol/L concentration) and incubated in a CO2 incubator for 24 h. The medium was then removed, the cell monolayer was washed twice with sterile PBS solution and fresh culture medium was added to the wells of the microplate.
(§2) After 48 h of cell culture, the MTT test was conducted. In each well of the microplate, 50 µL of tetrazolium salt solution (final concentration 0.05 mg/mL) was added. The microplate was then placed in a CO2 incubator for 3–4 h (depending on the cell line). Following incubation, 100 µL of DMSO (dimethyl sulfoxide, Sigma-Aldrich, St. Louis, MO, USA) was added to the microplate wells to dissolve the purple formazan crystals formed in the environment of living cells. The absorbance of the formazan solution was read at a wavelength of λ = 580 nm and a reference wavelength of λ = 720 nm after gentle mixing (Biotek Power Wave HT, Biotek Instruments, Winooski, VT, USA).
(§3) The percentage of live cells was calculated by comparing the absorbance value of the tested samples with that of the control (cells not treated with compounds). Control absorbance was arbitrarily considered to be 100%.
(§4) In order to determine the contribution of ROS to the cytotoxicity of the tested compounds, the cells were pre-incubated for 1 h with the antioxidant vitamin E (Trolox, Sigma-Aldrich; St. Louis, MO, USA). Cells were seeded into sterile, colorless 96-well microplates at a concentration of 6–8 × 10^3 cells/mL, depending on the cell line. After 24 h of culture, Trolox was added at a final concentration of 50 μM/well. After 1 h of incubation, the antioxidant was washed off, then appropriate concentrations of test compounds (10–200 µmol/L concentration) were added to fresh cell culture medium and incubated for 24 h. The MTT test was then performed under identical experimental conditions, as described in Section 3.1.2.

Hec-1-A [1] = assay: MTT cytotoxicity assay; format: cell-based; conditions: Homo sapiens, 24 h incubation, mean ± SEM, read-out: Cytotoxic effect, IC50
Description: as §1, §2, §3, §4

MCF-7 [2] = assay: MTT cytotoxicity assay; format: cell-based; conditions: Homo sapiens, MCF7, 24 h incubation, mean ± SEM, read-out: Cytotoxic effect, IC50
Description: as §1, §2, §3, §4

MDA-MB-231 [3] = assay: MTT cytotoxicity assay; format: cell-based; conditions: Homo sapiens, 24 h incubation, mean ± SEM, read-out: Cytotoxic effect, IC50
Description: as §1, §2, §3, §4

Ishikawa = assay: MTT cytotoxicity assay; format: cell-based; conditions: Homo sapiens
Description: as §1, §2
The percentage of live cells was calculated by comparing the absorbance value of the tested samples with that of the control (cells not treated with compounds). Control absorbance was arbitrarily considered to be 100%. […]

Hec-1-A [4] = assay: Mitochondrial potential (ΔΨm), JC-1 method; format: cell-based, human; conditions: IC50 concentration, 24 h
Description: (§5) 5,5,6,6-Tetrachloro-1,1,3,3-tetraethylbenzimidazolylcarbocyanine iodide (JC-1) is a cationic carbocyanine dye commonly used as a fluorescent probe to detect mitochondrial membrane depolarization. In living cells with an intact mitochondrial membrane, the lipophilic JC-1 penetrates the negatively charged mitochondrial matrix as a monomer. It then forms fluorescent aggregates with red-orange fluorescence (λex = 514 nm, λem = 590 nm). During depolarization of the mitochondrial membrane or in apoptotic cells, the concentration of JC-1 decreases, and the aggregates disintegrate into monomers emitting green fluorescence (λex = 514 nm, λem = 529 nm). The fluorescence ratio of aggregates (λem = 590 nm) and monomers (λem = 529 nm)—590 nm/529 nm—reflects the level of damage to the mitochondrial membrane.
(§6) The cells were seeded in black 96-well fluorometric microplates at a density of 10 × 10^3 cells per well. […] After incubation with the compounds, the medium was removed, the cell monolayer in the wells was washed twice with HBSS (140 mM NaCl, 5 mM KCl, 0.8 mM MgCl2, 1.8 mM CaCl2, 1 mM Na2HPO4, 10 mM HEPES and 1% glucose) and 50 μL of JC-1 solution in HBSS was added to each well (final probe concentration 5 μmol/L). Cells were incubated with the probe for 30 min in the dark in an incubator (37 °C). After incubation, the probe was removed and replaced with fresh HBSS buffer. Fluorescence measurements (Perkin-Elmer LS-5B spectrofluorometer, MA, USA) of JC-1 monomers and aggregates were made at the following excitation and emission wavelengths: λex = 514 nm, λem = 529 nm (monomers), λex = 514 nm, λem = 590 nm (aggregates). The results of the tested samples are presented as the percentage fluorescence ratio of JC-1 aggregates and JC-1 monomers relative to the fluorescence ratio of JC-1 aggregates and JC-1 monomers of the control, which was assumed to be 100%.
(§7) A positive control was formed of cells pre-incubated with 5 µmol/L carbonyl cyanide m-chlorophenylhydrazone (CCCP), a chemical inhibitor of oxidative phosphorylation that acts by uncoupling the protons flowing along the electrochemical gradient from phosphorylation.

MCF-7 [5] = assay: Mitochondrial potential (ΔΨm), JC-1 method; format: cell-based, human; conditions: IC50 concentration, 24 h
Description: as §5, §6, §7

MDA-MB-231 [6] = assay: Superoxide anion generation, DHE probe; format: cell-based, human; conditions: IC50 concentration, 24 h
Description: The level of superoxide anion (O2^•−) was determined by microplate spectrofluorimetry with dihydroethidium (hydroethidine, DHE) (Life Technologies, Carlsbad, CA, USA), which is the most commonly used fluorogenic probe for monitoring the intracellular production of superoxide anion O2^•− [41]. […] Thanks to this shift, DHE can be used as a sensitive probe for cellular ROS. The reaction between superoxide and DHE generates a highly specific red fluorescent product, 2-hydroxyethidium (2-OH-E^+).
The cells were seeded in black 96-well fluorometric microplates at a density of 10 × 10^3 cells per well. […] After incubation, the medium was removed, the cell monolayer in the wells was washed twice with HBSS (140 mM NaCl, 5 mM KCl, 0.8 mM MgCl2, 1.8 mM CaCl2, 1 mM Na2HPO4, 10 mM HEPES and 1% glucose) and 50 μL of DHE solution in HBSS was added to each well (final probe concentration 5 μmol/L). Cells were incubated with the probe for 30 min in the dark in an incubator (37 °C), and then fluorescence was measured. The measurement was performed at the following excitation and fluorescence emission wavelengths: λex = 498 nm/λem = 582 nm. Fluorescence measurements were made on a Perkin-Elmer LS-5B spectrofluorometer (MA, USA). Fluorescence intensity values for control cells were arbitrarily set as 100%. The results are presented as percentages of control cell values, calculated relative to the fluorescence intensity of the controls (100%): sample fluorescence was calculated as Δf in relation to the controls.

[7] = Ishikawa vs HMEC-1, read-out: IC50 in Ishikawa lower than that for HMEC-1, difference
[8] = Ishikawa, 24 h incubation, mean ± SEM, read-out: Cytotoxic effect, IC50

Structure (SMILES) | IC50 (HCC38) [µM] | IC50 (Hec-1-A [1]) [µM] | IC50 (MCF-7 [2]) [µM] | IC50 (MDA-MB-231 [3]) [µM] | IC50 (Ishikawa; [7]) [µM] | IC50 (Ishikawa; [8]) [µM] | changes in ΔΨm (in words) (Hec-1-A [4]) | hyperpolarization of ΔΨm (MCF-7 [5]) | greater superoxide anion level relative to control (DHE probe) (MDA-MB-231 [6]) | hyperpolarization of ΔΨm compared to control (Hec-1-A [4]) | decrease in ΔΨm (depolarization) compared to the control (MCF-7 [5])
O=C1/C(=C/c2ccccc2)C(c2ccccc2)Oc2ccccc21 (stereo not drawn) [Compound 5] | 25.6 ± 0.9 | 35.9 ± 2.4 | 25.1 ± 4.2 | 23.3 ± 1.4 | ~10 | 18.6 ± 4.4 | no changes in ΔΨm were observed | ~40% | ~30% | – | –
COc1cccc(/C=C2/C(=O)c3ccccc3OC2c2ccccc2)c1 (stereo not drawn) [Compound 3] | 20.9 ± 1.5 | 26.9 ± 2.3 | 16.4 ± 2.3 | 15.2 ± 3.1 | ~10 | 15.2 ± 1.6 | no changes in ΔΨm were observed | approximately 30% | approximately 20% | – | –
O=C1/C(=C/c2ccccc2)COc2ccccc21 [Compound 1] | 15.7 ± 0.8 | 18.5 ± 1.2 | 10.2 ± 0.9 | 12.6 ± 1.1 | ~10 | 10.2 ± 1.8 | – | – | approximately 20% | approximately 30% | approximately 17%

From publication PMC11312998, “Molecular Pro-Apoptotic Activities of Flavanone Derivatives in Cyclodextrin Complexes: New Implications for Anticancer Therapy” (International Journal of Molecular Sciences, 2024)
